# Reference: patent publication US20260115250A1, “METHODS OF TREATING AGE-RELATED MACULAR DEGENERATION” (Character Biosciences, Inc., priority 2022, published 2026)
# Read-outs that look alike come from different tables or passages of the source. Ends that are not written are not given here. Peptide text beside a SMILES is read from it.
# Assays:
# ARPE-19 cells [1] = test: ARPE-19 cell viability assay (Cell Titer Glo); type: cell-based, human; conditions: 100 μM peptide, 1.5 hours
# Description: ARPE-19 cells were seeded in 96-well plates at 25,000 cells/well and allowed to adhere to the plate surface for at least 24 hours. Peptides were diluted in serum-free DMEM: F12 to a final concentration of 100 μM. Cells were washed, then incubated in 100 μM peptide solution for 1.5 hours at 37° C. Plates were brought to room temperature for 30 minutes, then washed with DPBS. Cells were incubated in a 1:1 mixture of DPBS and Cell Titer Glo 2.0 Reagent for 10 minutes at room temperature, then cell luminescence was read on a plate reader. Viability values were background corrected, and 0% viability is determined by luminescence values of cells treated with 1% Triton-X-100. Data are presented as mean+SD over two separate runs.
# LDLR = LDLR (Homo sapiens, UniProt P01130); test: LDLR binding (SPR), high surfactant preparation
# Sequence of LDLR (P01130 22-860): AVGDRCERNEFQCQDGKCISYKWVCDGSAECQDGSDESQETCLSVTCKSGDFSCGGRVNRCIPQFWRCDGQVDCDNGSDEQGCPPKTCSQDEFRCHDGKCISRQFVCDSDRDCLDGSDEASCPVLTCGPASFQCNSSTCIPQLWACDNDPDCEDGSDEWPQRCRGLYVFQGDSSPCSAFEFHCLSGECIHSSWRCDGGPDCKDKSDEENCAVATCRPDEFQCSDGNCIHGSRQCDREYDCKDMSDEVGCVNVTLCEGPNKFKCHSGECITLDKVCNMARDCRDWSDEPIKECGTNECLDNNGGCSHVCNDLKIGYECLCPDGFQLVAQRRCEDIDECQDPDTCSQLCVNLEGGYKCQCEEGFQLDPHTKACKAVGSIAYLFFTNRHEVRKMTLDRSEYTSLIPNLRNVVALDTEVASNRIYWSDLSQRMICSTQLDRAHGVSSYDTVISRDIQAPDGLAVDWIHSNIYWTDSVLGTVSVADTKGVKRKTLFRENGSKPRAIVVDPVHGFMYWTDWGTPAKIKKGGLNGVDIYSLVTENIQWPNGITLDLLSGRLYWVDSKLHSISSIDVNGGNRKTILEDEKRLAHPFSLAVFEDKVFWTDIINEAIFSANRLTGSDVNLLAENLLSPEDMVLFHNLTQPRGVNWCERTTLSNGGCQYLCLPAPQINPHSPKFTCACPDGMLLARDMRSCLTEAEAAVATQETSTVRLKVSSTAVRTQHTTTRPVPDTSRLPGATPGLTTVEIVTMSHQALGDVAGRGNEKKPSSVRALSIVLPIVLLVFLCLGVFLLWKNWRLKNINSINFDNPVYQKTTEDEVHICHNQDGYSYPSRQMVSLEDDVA
# Description: The table shown in FIG. 23 illustrates LDLR binding data (SPR), using a high surfactant preparation. Recombinant LDLR was diluted in 10 mM acetate buffer pH 4.5 and amine coupled to a CM5 chip at 1000 RU. Peptides were diluted to 5 μM in running buffer (HBS-P+, 1 mM CaCl2) and serially diluted 1:3 for 5 total concentrations. Peptides were exposed to immobilized LDLR at a rate of […] for 120 seconds. Between cycles, the chip surface was regenerated with 3 injections of 50 mM NaOH/100 mM EDTA. Multi-Cycle Kinetics was performed on a Biacore Insight Evaluation Software and binding kinetics were analyzed with a 1:1 binding model.
# [2] = key assays (summary statement on homologous variants)
# ARPE-19 cells [3] = test: ARPE-19 cholesterol efflux; type: cell-based, human; conditions: ARPE-19, 20 μM peptide, 4 hours
# Description: Fully confluent 96-well plates of ARPE-19 cells were treated for 1 hour in serum-free DMEM containing 10 mM methyl-β-cyclodextrin, 100 μM cholesterol, and 25 μM BODIPY cholesterol. Cells were then washed and incubated overnight in serum-free DMEM containing 1 μM GW3965, 2 μg/mL ACAT inhibitor, and 0.2% BSA (LXR Agonist treated), or serum free DMEM containing 2 μg/mL ACAT inhibitor, and 0.2% BSA (Control). Cells were washed and incubated with 20 μM peptides diluted in serum-free Fluorobrite DMEM for 4 hours at 37° C. Media was transferred to a new 96-well plate and fresh serum-free Fluorobrite DMEM was placed on the cells. Media and cellular fluorescence were read on a Promega GloMax at 475 nm excitation, 500-550 emission. Fluorescence values were background corrected from no treatment conditions and percent efflux was calculated by the following equation: % efflux=(Media Fluorescence values)/(Media+Cell Fluorescence values). Data are presented as mean+SD over two runs per peptide.
# [4] = high surfactant preparation (HBS-P+), 1:1 binding model, read-out: binding KD to LDLR
Molecule,ARPE-19 cell viability (ARPE-19 cells [1]),Kd (LDLR; [4]),activity in key assays of polypeptides homologous to T-087 [2],cholesterol efflux following LXR agonist treatment (ARPE-19 cells [3]),Kd (LDLR)
CC(C)C[C@H](NC(=O)[C@H](CC(=O)O)NC(=O)[C@H](CCCCN)NC(=O)CNC(=O)[C@H](Cc1ccc(O)cc1)NC(=O)[C@H](CC(=O)O)NC(=O)[C@@H](NC(=O)[C@@H](NC(=O)[C@@H](NC(=O)[C@H](CCC(N)=O)NC(=O)[C@H](CCCNC(=N)N)NC(=O)[C@H](Cc1ccc(O)cc1)NC(=O)[C@H](CCC(N)=O)NC(=O)[C@H](CO)NC(=O)[C@@H](NC(=O)[C@H](CC(C)C)NC(=O)[C@H](CO)NC(=O)[C@H](CCCNC(=N)N)NC(=O)[C@H](CC(C)C)NC(=O)[C@H](CC(C)C)NC(=O)[C@H](CCCNC(=N)N)NC(=O)[C@H](CCCCN)NC(=O)[C@H](CCCNC(=N)N)NC(=O)[C@H](CC(C)C)NC(=O)[C@H](CCCCN)NC(=O)[C@H](CCCNC(=N)N)NC(=O)[C@H](CC(C)C)NC(=O)[C@@H](N)Cc1c[nH]cn1)C(C)C)[C@@H](C)O)C(C)C)[C@@H](C)O)C(=O)O [T-110] (H-HLRKLRKRLLRSLVSQYRQTVTDYGKDL-OH),substantial change in viability,< 10 µM,,,
CC(C)C[C@H](NC(=O)[C@H](C)NC(=O)[C@H](CCCNC(=N)N)NC(=O)[C@H](Cc1ccccc1)NC(=O)[C@H](CCC(=O)O)NC(=O)[C@H](CCCNC(=N)N)NC(=O)[C@@H](N)Cc1c[nH]c2ccccc12)C(=O)N[C@@H](Cc1ccccc1)C(=O)N[C@@H](CCCCN)C(=O)N[C@@H](CCC(=O)O)C(=O)N[C@@H](CC(C)C)C(=O)N[C@@H](C)C(=O)N[C@@H](CC(=O)O)C(=O)N[C@@H](Cc1ccc(O)cc1)C(=O)N[C@@H](Cc1ccccc1)C(=O)N[C@@H](CCCNC(=N)N)C(=O)N[C@@H](CC(=O)O)C(=O)N[C@@H](C)C(=O)O [T-085] (H-WREFRALFKELADYFRDA-OH),substantial change in viability,,,,
CC(C)C[C@H](NC(=O)[C@H](CCCNC(=N)N)NC(=O)[C@H](CC(=O)O)NC(=O)[C@H](Cc1ccc(O)cc1)NC(=O)[C@H](CC(C)C)NC(=O)[C@H](CCCCN)NC(=O)[C@H](CC(=O)O)NC(=O)CNC(=O)[C@H](CC(=O)O)NC(=O)[C@H](CCCNC(=N)N)NC(=O)[C@H](CC(C)C)NC(=O)[C@H](CC(C)C)NC(=O)[C@H](CCCNC(=N)N)NC(=O)[C@H](CCCCN)NC(=O)[C@H](CCCNC(=N)N)NC(=O)[C@H](CC(C)C)NC(=O)[C@H](CCCCN)NC(=O)[C@H](CCCNC(=N)N)NC(=O)[C@H](CC(C)C)NC(=O)[C@@H](N)Cc1c[nH]cn1)C(=O)N[C@@H](C)C(=O)N[C@@H](CCC(=O)O)C(=O)N[C@@H](Cc1ccc(O)cc1)C(=O)N[C@@H](Cc1ccc(O)cc1)C(=O)N[C@@H](C)C(=O)N[C@@H](CCCNC(=N)N)C(=O)N[C@@H](C)C(=O)N[C@@H](CCCCN)C(=O)N[C@@H](CCC(=O)O)C(=O)N[C@@H](C)C(=O)N[C@@H](Cc1ccccc1)C(=O)N[C@@H](CC(=O)O)C(=O)N[C@@H](CCCNC(=N)N)C(=O)O [T-062] (H-HLRKLRKRLLRDGDKLYDRLAEYYARAKEAFDR-OH),substantial change in viability,< 10 µM,,,
CC(C)C[C@H](NC(=O)[C@H](CC(=O)O)NC(=O)[C@H](CCC(=O)O)NC(=O)CNC(=O)[C@H](Cc1ccc(O)cc1)NC(=O)[C@H](CC(=O)O)NC(=O)[C@@H](NC(=O)[C@@H](NC(=O)[C@@H](NC(=O)[C@H](CCC(N)=O)NC(=O)[C@H](CCCNC(=N)N)NC(=O)[C@H](Cc1ccc(O)cc1)NC(=O)[C@H](CCC(N)=O)NC(=O)[C@H](CO)NC(=O)[C@@H](NC(=O)[C@H](CC(C)C)NC(=O)[C@H](CO)NC(=O)[C@H](CCCNC(=N)N)NC(=O)[C@H](CC(C)C)NC(=O)[C@H](CC(C)C)NC(=O)[C@H](CCCNC(=N)N)NC(=O)[C@H](CCCCN)NC(=O)[C@@H](NC(=O)[C@H](CC(C)C)NC(=O)[C@H](CCCCN)NC(=O)[C@H](CCCNC(=N)N)NC(=O)[C@H](CC(C)C)NC(=O)[C@@H](N)Cc1c[nH]cn1)C(C)C)C(C)C)[C@@H](C)O)C(C)C)[C@@H](C)O)C(=O)O [T-111] (H-HLRKLVKRLLRSLVSQYRQTVTDYGEDL-OH),substantial change in viability,< 10 µM,,,
T-163: variant of peptide T-087 (DAWERFRALAKELADYFR),,,sustained or improved activity,increased cholesterol efflux,
T-161: variant of peptide T-087 (DAWERFRGLFKELADYFR),,,sustained or improved activity,increased cholesterol efflux,
VRGRLVQYRGEVQAMLGQSTEELRVRLASHLRKLRKRLLRDADDLQKRLAVYQA [T-069],substantial change in viability,,,,< 10 µM
DHINKVQRKVTHEIERLFLGQSTEELRVRLASHLRKLRKRLLRDADDLQKRLAVYQA [T-115],substantial change in viability,,,,< 10 µM
CSCC[C@H](NC(=O)[C@H](CC(C)C)NC(=O)[C@H](CC(=O)O)NC(=O)[C@H](CCCCN)NC(=O)CNC(=O)[C@H](Cc1ccc(O)cc1)NC(=O)[C@H](CC(=O)O)NC(=O)[C@@H](NC(=O)[C@@H](NC(=O)[C@@H](NC(=O)[C@H](CCC(N)=O)NC(=O)[C@H](Cc1ccccc1)NC(=O)[C@H](Cc1ccc(O)cc1)NC(=O)[C@H](CCC(N)=O)NC(=O)[C@H](CO)NC(=O)[C@@H](NC(=O)[C@H](CC(C)C)NC(=O)[C@H](CO)NC(=O)[C@H](CCCNC(=N)N)NC(=O)[C@H](CC(C)C)NC(=O)[C@H](CC(C)C)NC(=O)[C@H](CCCNC(=N)N)NC(=O)[C@H](CCCCN)NC(=O)[C@H](CCCNC(=N)N)NC(=O)[C@H](CC(C)C)NC(=O)[C@H](CCCCN)NC(=O)[C@H](CCCNC(=N)N)NC(=O)[C@H](CC(C)C)NC(=O)[C@H](Cc1c[nH]cn1)NC(=O)[C@H](CO)NC(=O)[C@H](C)NC(=O)[C@@H](N)CC(C)C)C(C)C)[C@@H](C)O)C(C)C)[C@@H](C)O)C(=O)O [T-065] (H-LASHLRKLRKRLLRSLVSQYFQTVTDYGKDLM-OH),substantial change in viability,< 10 µM,,,
T-160: variant of peptide T-087 (DAWERFRPLFKELADYFR),,,sustained or improved activity,increased cholesterol efflux,
T-172: variant of peptide T-087 (DAWERFRALFKELADYFA),,,sustained or improved activity,increased cholesterol efflux,
